Test results reported in article PMC7647782, “Cytotoxic, Antioxidant, and Metabolic Enzyme Inhibitory Activities of Euphorbia cyparissias Extracts” (Oxidative Medicine and Cellular Longevity, 2020).
Values after ≈ are worked out from the molar mass of the structure shown. Blank lines part the entries; values can stand above or below the molecule they belong to.

What was measured:
β-glucosidase = assay: β-Glucosidase activity inhibition; assay type: biochemical
Procedure: [20], respectively. […] The enzymes β-glucosidase, α-amylase, and XO were purchased from Sigma-Aldrich (St. Louis, MO, USA). The β-glucosidase activity was determined by measuring the 4-nitrophenol […] (4-NPGP) product. […] Then, the mixture was incubated with color reagent NPGP (180 μL) for more 15 min at 37°C. […] The activity was evaluated by measuring absorbance at 405 nm with a microplate reader. The same equation used to measure α-amylase activity was used to measure that of β-glucosidase.

[1] = DPPH radical scavenging assay
Procedure: In every sample of E. cyparissias extract, the antioxidant activity was evaluated by using the DPPH radical scavenging and reducing power assays as previously described in the literature. To measure DPPH activity, a sample of 0.5 mL for each concentration was mixed with an equal volume of DPPH ethanolic solution and incubated in darkness for 1 h at ambient temperature. The activity was determined by comparing the absorbance at 519 nm of DPPH radicals to that of the control (containing all reagents except the extract).

SPLA2-IB = assay: Phospholipase activity inhibition, stingray PLA2-IB; assay type: biochemical; details: stingray group IB phospholipase
Procedure: The phospholipase activities were measured based on the De Araújo and Radvanyi method [24]. The inhibitory effect of various extracts was determined using samples of dromedary, stingray, and porcine digestive group IB phospholipases (PLA2-IB). A 10 μL sample of ethanolic or aqueous extract was mixed with 10 μL of PLA2-GIB and preincubated for 20 min at room temperature. The mixture was added to 1 mL of the substrate, which was composed of lecithin (3.5 mM) solubilized in 100 mM NaCl, 3 mM sodium taurodeoxycholate, 10 mM CaCl2, and 0.055 mM red phenol at a pH of 7.6. […] The inhibition percentage was calculated by measuring residual activity compared to negative control assay (absence of extract). The IC50 values were determined from the curve.
Values represent the mean ± SD of triplicate measurements.

dromedary lipase (DrPL) = assay: Lipase activity inhibition, dromedary lipase; assay type: biochemical; details: mean ± SD of triplicate
Excerpt: Dromedary (DrPlA2-IB), porcine (PPPlA2-IB), and stingray group IB phospholipases (SPLA2-IB) were purified and prepared as described in our previous works and De Haas et al., respectively. Dromedary (DrPL), stingray (SPL), and porcine (PPL) lipases were also purified according to protocols optimized in previous works. The enzymes β-glucosidase, α-amylase, and XO were purchased from Sigma-Aldrich (St. Louis, MO, USA).
The inhibitory effect of ethanolic and aqueous extracts of E. cyparissias on dromedary, stingray, and porcine lipase activities were investigated at different concentrations ranging from 0 to 100 μg/mL. The assay was carried out by incubating 12 IU of enzymes (50 μL) with 10 μL of extract. A positive control using commercial orlistat (Xenical, Hoffmann-La Roche) was run in parallel in the same conditions. Inhibition of lipase activities was expressed as the percentage of residual activity after incubation with Euphorbia extracts compared to the negative control ([…]). Lipase activities were measured using tributyrin as a substrate under the optimal conditions for each enzyme, as previously described. The IC50 values correspond to the half maximal inhibitory concentration.
The activities of these lipases were measured using the pH-stat technique on olive oil emulsion at optimal conditions for enzyme activity. […]

chymotrypsin = chymotrypsin (Bos taurus, UniProt P00766); assay: Protease activity inhibition, chymotrypsin; assay type: biochemical; details: unit as in head of Table 4
Procedure: (§1) The trypsin and chymotrypsin activity inhibition was performed as described by Kunitz. An aliquot of 1 mL of ethanolic or water extract was incubated for 15 min at 37°C with an equal volume of the enzyme. The mixture was then incubated for 30 min at 37°C with 2 mL of 2% casein as the substrate. The reaction was stopped by adding 2.5 mL of 5% trichloroacetic acid (TCA). The activity was determined by measuring the absorbance of the mixture at 280 nm, after 15 min of centrifugation at 15 000 rpm. Ethanol was used as a negative control and Bowman-Birk Inhibitor (BBI) as a positive control. The protease activity inhibition was also expressed as inhibition percentage, which was determined by comparing the results with those of a control experiment.

trypsin = target: T1, trypsin (Bos taurus, UniProt P00760); assay: Protease activity inhibition, trypsin; assay type: biochemical; details: unit as in head of Table 4
T1 construct: gene PRSS1
T1 sequence (P00760 24-246): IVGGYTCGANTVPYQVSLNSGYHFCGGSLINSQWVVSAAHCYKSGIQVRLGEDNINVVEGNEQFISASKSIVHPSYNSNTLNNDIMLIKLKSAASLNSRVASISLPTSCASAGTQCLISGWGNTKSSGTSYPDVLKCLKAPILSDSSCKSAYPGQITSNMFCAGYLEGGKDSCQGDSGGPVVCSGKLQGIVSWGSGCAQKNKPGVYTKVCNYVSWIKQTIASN
Procedure: as §1

- IC50 β-Glucosidase (β-glucosidase): 26.2 ± 2.5 µg/mL (≈ 40.6 µM)
Molecule: C[C@H]1O[C@H](O[C@H]2[C@H](O)[C@@H](O)[C@@H](O[C@H]3[C@H](O)[C@@H](O)C(O)O[C@@H]3CO)O[C@@H]2CO)[C@H](O)[C@@H](O)[C@@H]1N[C@H]1C=C(CO)[C@@H](O)[C@H](O)[C@H]1O (stereo partly shown) [Acarbose]

- DPPH IC50 ([1]; from Figure 5(b), unit as printed for BHT): ~54 µg/mL
Molecule: Cc1cc(C(C)(C)C)c(O)c(C(C)(C)C)c1 [BHT, butylated hydroxytoluene]
- DPPH scavenging activity ([1]; at a concentration of 1 mg/mL): 95.3 ± 0.4%

Molecule: CC1(C)CC[C@]2(C(=O)O)CC[C@]3(C)C(=CC[C@@H]4[C@@]5(C)CC[C@H](O)C(C)(C)[C@@H]5CC[C@]43C)[C@@H]2C1 [Oleanolic acid, oleanolic acid]
- IC50 SPLA2-IB (SPLA2-IB): 82.8 ± 5.7 µg/mL (≈ 181 µM)

Molecule: CCCCCCCCCCC[C@@H](C[C@@H]1OC(=O)[C@H]1CCCCCC)OC(=O)[C@H](CC(C)C)NC=O [Orlistat, orlistat]
- IC50 DrPL (dromedary lipase (DrPL)): 97.2 ± 2.5 µg/mL (≈ 196 µM)

- IC50 Chymotrypsin (chymotrypsin): 0.0108 ± 0.0004 µg/mL
Molecule: BBI: Bowman-Birk Inhibitor, positive control for trypsin and chymotrypsin inhibition

- IC50 Trypsin (trypsin): 0.0115 ± 0.0004 µg/mL
B1: BBI: Bowman-Birk Inhibitor, positive control for trypsin and chymotrypsin inhibition (protein)
chain: DDESSKPCCDQCACTKSNPPQCRCSDMRLNSCHSACKSCICALSYPAQCFCVDITDFCYEPCKPSEDDKEN
modifications: seven intrachain disulfides; Check residues are the known reactive sites Lys16 and Leu43 in mat
